Results reported in patent publication US20060128681A1, “Novel rho inhibitors” (priority 2002, published 2006).
Read-outs that look alike come from different tables or passages of the source.

Assays:
[1] = molecular target: T1, rho transcription termination factor (Escherichia coli, UniProt P0AG30); experiment: Rho poly(C)-dependent ATPase assay, inhibition by metal chelates and bicyclomycin; assay type: biochemical, E. coli; parameters: made in house; host or cells: E. coli strain AR120 with plasmid p39-ASE; conditions: (DL)DTT 0.1-0.3 mM alone or equimolar with metal chloride, in presence of MgCl2
T1 sequence (P0AG30 whole entry): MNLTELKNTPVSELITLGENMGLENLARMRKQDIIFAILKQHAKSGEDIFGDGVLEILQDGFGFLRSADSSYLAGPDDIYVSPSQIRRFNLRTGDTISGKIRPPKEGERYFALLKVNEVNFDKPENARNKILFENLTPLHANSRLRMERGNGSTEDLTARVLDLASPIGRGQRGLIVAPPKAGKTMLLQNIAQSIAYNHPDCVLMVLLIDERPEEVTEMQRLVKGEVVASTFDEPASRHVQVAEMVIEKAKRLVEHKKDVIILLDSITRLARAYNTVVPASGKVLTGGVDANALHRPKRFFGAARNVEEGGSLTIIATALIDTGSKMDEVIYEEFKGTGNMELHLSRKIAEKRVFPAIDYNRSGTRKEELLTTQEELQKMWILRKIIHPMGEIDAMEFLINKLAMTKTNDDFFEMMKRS
Procedure: Rho poly(C)-dependent ATPase assay.
The reactions were analyzed as described above.

[2] = molecular target: T1, rho transcription termination factor; conditions: for IC50: read-out: I50, rho poly(C)-dependent ATP hydrolysis; for rho inhibition at 4000 μM: 4000 μM metal
Procedure: Rho poly(C)-dependent ATPase assay. See, generally, Sharp et al., (1983) A kinetic mechanism for the poly(C)-dependent ATPase of the Escherichia coli transcription termination protein, rho, J. Biol. Chem. 258, 3482-3486. The ribonucleotide-stimulated ATPase activity of rho at 32° C. was assayed by the amount of ^32P-labeled inorganic phosphate hydrolyzed from ATP after separation on PEI-TLC plates (prerun with water and dried) using 0.75 M potassium phosphate (pH 3.5) as the mobile phase. Reactions were initiated by adding ATP (varying concentrations) and 0.5 μCi [γ-^32P] ATP to the solution containing 40 mM Tris-HCl (pH 7.9), 50 mM KCl, 100 nM or 250 nM poly(C), 100 or 250 nM rho (monomer) and MgCl2 (1 mM or 10 mM). The TLC plates were exposed to PhosphorImager plates (Fuji and Molecular Dynamics) (3 h), scanned on a Storm 860 PC PhosphorImager and analyzed using Molecular Dynamic's ImageQuant 5.0. The initial rates of the reactions were determined by plotting the amount of ATP hydrolyzed against time. Each reaction was performed in duplicate and the results averaged.
B. Divalent Metal Activation of Rho in the Presence of MgCl2. To provide additional information concerning the roles of divalent metals in rho activation, the poly(C)-dependent assays were repeated in the presence of 10 mM MgCl2 and varying concentrations (10, 20, 40, 80, 125, 160, 250, 320, 500, 640 μM) of the divalent metals.

[3] = molecular target: T1, rho transcription termination factor; conditions: for Vmax(app) / % activity (Vmax or Vpeak) / % efficiency (Vmax/KM or Vpeak/KM) / Vpeak(app): Mg^2+-free; for Vmax(app) / Vpeak(app): from activation curves; for % activity (Vmax or Vpeak) / % efficiency (Vmax/KM or Vpeak/KM): relative to Mg^2+; for metal activation profile: absence of MgCl2, 1.9-4000 μM metal; for n (Hill): nonlinear regression of velocity curves; for effect on rho poly(C)-dependent ATP hydrolysis in the absence of MgCl2: (DL)DTT-free buffer; for peak velocity / total metal concentration at peak velocity: absence of MgCl2, FIG. 8
Procedure: Rho poly(C)-dependent ATPase assay. […] The ribonucleotide-stimulated ATPase activity of rho at 32° C. was assayed by the amount of ^32P-labeled inorganic phosphate hydrolyzed from ATP after separation on PEI-TLC plates (prerun with water and dried) using 0.75 M potassium phosphate (pH 3.5) as the mobile phase. Reactions were initiated by adding ATP (varying concentrations) and 0.5 μCi [γ-^32P] ATP to the solution containing 40 mM Tris-HCl (pH 7.9), 50 mM KCl, 100 nM or 250 nM poly(C), 100 or 250 nM rho (monomer) and MgCl2 (1 mM or 10 mM). The TLC plates were exposed to PhosphorImager plates (Fuji and Molecular Dynamics) (3 h), scanned on a Storm 860 PC PhosphorImager and analyzed using Molecular Dynamic's ImageQuant 5.0. The initial rates of the reactions were determined by plotting the amount of ATP hydrolyzed against time. Each reaction was performed in duplicate and the results averaged.
A. Divalent Metal Activation of Rho in the Absence of MgCl2. […] For each metal, wild-type rho was pretreated with 20 mM EDTA to deplete the protein of residual metals and removed the excess EDTA and the metal•EDTA complex by a spin column.

[4] = molecular target: T1, rho transcription termination factor; parameters: made in house; host or cells: E. coli strain AR120 with plasmid p39-ASE; conditions: poly(dC)-ribo(C)10 ATPase assay, literature (Magyar 1996); cited from earlier work
[5] = molecular target: E. coli RecA (Escherichia coli, UniProt P0A7G6); experiment: RecA poly(dT)-dependent ATP hydrolysis; assay type: biochemical; conditions: bicyclomycin 0-400 μM; Zn-(L)DTT equimolar
Sequence of E. coli RecA (P0A7G6 2-353): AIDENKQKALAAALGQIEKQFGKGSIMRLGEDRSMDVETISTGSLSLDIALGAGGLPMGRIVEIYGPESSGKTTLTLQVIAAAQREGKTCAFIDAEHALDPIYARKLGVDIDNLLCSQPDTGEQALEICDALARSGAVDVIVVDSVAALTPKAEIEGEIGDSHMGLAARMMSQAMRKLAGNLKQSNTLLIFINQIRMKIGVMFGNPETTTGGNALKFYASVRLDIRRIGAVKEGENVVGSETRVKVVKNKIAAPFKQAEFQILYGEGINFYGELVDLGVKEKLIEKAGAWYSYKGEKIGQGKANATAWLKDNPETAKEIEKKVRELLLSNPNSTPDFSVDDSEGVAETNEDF
Procedure: The validity of some of these new leads has been questioned, and attention is now focused on determining the inhibition pathway for these compounds and whether the inhibitors show enzyme specificity. McGovern et al., (2001) A common mechanism underlying promiscuous inhibitors from virtual and high-throughput screening, J. Med. Chem. 45, 1712-1722. Compounds that show nonspecific interaction have been defined as “promiscuous inhibitors.” The inhibitor specificity of Zn-(L)DTT complexes was tested. […] Next, the time dependency for chelate inhibition was examined because a well-behaved, reversible inhibitor is typically not affected by incubation time. McGovern et al., (2001). […] The effect of Zn-(L)DTT solutions on E. coli RecA poly (dT)-dependent ATP hydrolysis was determined.
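Throughout, for % activity (Vmax or Vpeak): Poly(C)-dependent ATP hydrolysis by wild-type rho with other divalent metals in place of magnesium, radiolabeled ATP at varied levels, TLC phosphorimaging, initial rates from hydrolyzed ATP versus time.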
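Throughout, for % efficiency (Vmax/KM or Vpeak/KM): Poly(C)-dependent ATP hydrolysis by wild-type rho with other divalent metals in place of magnesium, radiolabeled ATP at varied levels, TLC phosphorimaging, initial rates from hydrolyzed ATP versus time.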
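Throughout, for Vmax(app): Poly(C)-dependent ATP hydrolysis by wild-type rho with other divalent metals in place of magnesium, radiolabeled ATP at varied levels, TLC phosphorimaging, initial rates from hydrolyzed ATP versus time.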
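Throughout, for metal activation profile: Poly(C)-dependent ATP hydrolysis by wild-type rho with other divalent metals in place of magnesium, radiolabeled ATP at varied levels, TLC phosphorimaging, initial rates from hydrolyzed ATP versus time.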

Compound | effect on ATP hydrolysis rate in the presence of MgCl2 ([2]; 10 mM MgCl2) | Vmax(app) [3] [mol/min/mg] | % activity (Vmax or Vpeak) [3] [%] | metal activation profile [3] | % efficiency (Vmax/KM or Vpeak/KM) [3] [%] | n (Hill) [3] | also measured
OC(CS)C(O)CS (racemic) [(DL)DTT, dithiothreitol] |  |  |  |  |  |  | effect on rho poly(C)-dependent ATP hydrolysis [1]: did not inactivate the enzyme
[Be+2].[Cl-].[Cl-] [Be^2+] | inhibited | 0.21 | 2 | did not catalyze ATP hydrolysis |  |  | activity at 100 μM ([2]; 100 μM BeCl2, 10 mM MgCl2): almost complete loss of activity; IC50 ([2]; 10 mM MgCl2): 63 µM
[Ca+2] [Ca^2+] | negligible effects | 3.13 | 25 | Michaelis-Menten kinetics | 74 | 1 | 
[Cd+2] [Cd^2+] | negligible effects |  | 39 | peak velocities | 20 | 4.6 | effect on rho poly(C)-dependent ATP hydrolysis in the absence of MgCl2 [3]: activated; Vpeak(app) [3]: 4.74 mol/min/mg; peak velocity [3]: 4.8 µmol/min/mg; total metal concentration at peak velocity [3]: 65 µM
[Co+2] [Co^2+] | negligible effects | 7.65 | 62 | Michaelis-Menten kinetics | 61 | 1 | 
[Cu+2] [Cu^2+] | inhibited | 1.54 | 13 | Michaelis-Menten kinetics | 39 | 1 | loss of activity ([2]; 10 mM MgCl2): ~30%
[Hg+2] [Hg^2+] | inhibited | 0.78 | 6 | Michaelis-Menten kinetics | 29 | 1 | rho inhibition at 4000 μM ([2]; 10 mM MgCl2): ~50%
[Mg+2] [Mg^2+] |  | 12.3 | 100 | Michaelis-Menten kinetics | 100 | 1 | efficiency (Vmax/KM or Vpeak/KM) relative to Co^2+ [3]: 1.5 times
[Cl][Mn][Cl] [Mn^2+] |  |  | 97 | peak velocities | 89 | 1 | efficiency (Vmax/KM or Vpeak/KM) relative to Co^2+ [3]: 1.6 times; % of maximum activity at 4000 μM ([3]; 4000 μM total metal): 10%; effect on rho poly(C)-dependent ATP hydrolysis in the absence of MgCl2 [3]: activated; Vpeak(app) [3]: 11.9 mol/min/mg; peak velocity [3]: 11.9 µmol/min/mg; total metal concentration at peak velocity [3]: 250 µM
[Cl][Ni][Cl] [Ni^2+] | negligible effects | 4.79 | 39 | sigmoidal activation pattern | 29 | 2.9 | effect on rho poly(C)-dependent ATP hydrolysis in the absence of MgCl2 [3]: activated
[Sr+2] [Sr^2+] | negligible effects | 0.17 | 1 | did not catalyze ATP hydrolysis |  | 1 | 
[O]=[V+2] [VO^2+] | negligible effects | 0.78 | 6 | Michaelis-Menten kinetics |  | 1 | 
[Cl-].[Cl-].[Zn+2] [Zn^2+] | inhibited |  | 81 | peak velocities | 51 | 5.5 | rho inhibition at 4000 μM ([2]; 10 mM MgCl2): ~50%; change of I50 on 10-fold poly(C) ([2]; poly(C) concentration increased 10-fold): increased only slightly; IC50 ([2]; 1 mM MgCl2, estimated): 190 µM; IC50 ([2]; 10 mM MgCl2): 4000 µM; activity remaining at 190 μM total metal ([3]; 190 μM [Zn^2+]total): 50%; velocity at 1000 μM total metal ([3]; 1000 μM [Zn^2+]total): zero; effect on rho poly(C)-dependent ATP hydrolysis in the absence of MgCl2 [3]: activated; Vpeak(app) [3]: 9.98 mol/min/mg; peak velocity [3]: 9.4 µmol/min/mg; total metal concentration at peak velocity [3]: 125 µM; IC50 ([3]; read-out: I50, rho poly(C)-dependent ATP hydrolysis, 0 mM MgCl2, estimated): 190 µM
C=C1CCO[C@]2([C@@H](O)[C@@](C)(O)CO)NC(=O)[C@@]1(O)NC2=O [bicyclomycin, Bicyclomycin] |  |  |  |  |  |  | inhibition kinetics with respect to ribo(C)10 [4]: mixed inhibition pattern; effect on RecA poly(dT)-dependent ATP hydrolysis [5]: no loss in RecA ATPase activity
